Test results reported in PMC8412337, “Alpha-single chains of collagen type VI inhibit the fibrogenic effects of triple helical collagen VI in hepatic stellate cells” (PLoS ONE, 2021).

Tested on: primary rat HSC
Assay: Morphology and αSMA protein expression (activation of HSCs)
Assay type: cell-based
Procedure: Activated HSC (third passage) were serum starved for 24 h in standard medium without FBS (starving medium), followed by dissociation with 500 μl 0.05% trypsin-EDTA (Biochrom, Berlin, Germany) and neutralization with 30 ml starving medium containing 1 g/l soybean trypsin inhibitor and 1 g/l ovalbumin. Alternatively, cells were scraped carefully with a cell-scraper (Costar, Cambridge, MA, USA) to exclude any potential effect of trypsin. […] For quantification of spreading, cells that had attached were counted 12 hours after plating and spreading efficiency was determined as percentage of plated cells in each group. De-novo DNA synthesis and apoptosis were assessed by morphological criteria, Cell death detection ELISA and FACS analysis as described below. […] After blocking the cells 1h with DMEM+1% FBS, the cells were incubated with primary antibodies against a-actin (Sigma-Aldrich, Taufkirchen, Germany, #A2547; dilution 1:200) and GFAP (Sigma-Aldrich, #G9269; dilution 1:20) followed by a washing step with PBS and the incubation with fluorescence-labeled secondary antibodies (Alexa Fluor 546 & Alexa Fluor 488, Molecular Probes, Eugene, USA, #A11030 & #A11034; dilution 1:100). […]
Dislodged cells were centrifuged at 800 x g/10 min and lysed with 100 μl lysis buffer. […] The emitted fluorescence was assessed at 570 nm in a SpectraMax Gemini EM (Molecular Devices, Biberach an der Riß, Germany). […]

Substance: CVI: Human collagen VI isolated from placentas by pepsin digestion; triple helical, soluble
- protein expression of αSMA (freshly isolated rat HSCs, immunostaining, detected as early as three days, immunoblotting): strongly induced
- formation of cytoplasmic extensions (primary rat HSC, serum-reduced medium containing 1% FBS, five days): induced the formation of distinct cytoplasmic extensions
